Article PMC6332446, “Acylphloroglucinol Derivatives from the South African Helichrysum niveum and Their Biological Activities” (Molecules, 2015)

Columns and labels:
[1] = Copper-initiated prooxidant activity in the ORAC assay; conditions: Cu2+ 18 μM without H2O2, 37 °C; one unit = 1% reduction of area under fluorescein decay curve
Description: (§1) Automated Oxygen Radicals Absorbance Capacity (ORAC) Assay: ORAC was measured according to the method previously described. The method measures the antioxidant scavenging capacity for (a) peroxyl radicals generated by thermal decomposition of 2,2ʹ-azobis ([…]) dihydrochloride (AAPH; ORACROO assay); (b) hydroxyl radical (ORACOH assay), generated by H2O2-Cu^2+ (H2O2, 0.3%; Cu^2+ [as CuSO4], 18 μM, or (c) Cu^2+ [as CuSO4], 18 μM as a transition metal oxidant at 37 °C. ORAC values were expressed as micromoles of trolox equivalents (TE) per milligram of test sample, except when Cu^2+ (without H2O2) was used as an oxidant in the assay. In the presence of Cu^2+ without H2O2, test samples acted as prooxidants rather than antioxidants in the ORAC assay. The copper-initiated prooxidant activity was calculated using [(AreaBlank − AreaSample)/AreaBlank] × 100 and expressed as prooxidant units; one unit equals the prooxidant activity that reduces the area under the fluorescein decay curve by 1% in the ORAC assay.

mushroom tyrosinase = test: Tyrosinase enzyme assay; format: biochemical; conditions: L-Tyrosine substrate; samples screened at 100.00 μg/mL upper limit
Description: Tyrosinase Enzyme Assay: The tyrosinase inhibitory activity was measured using the spectrophotometric method previously described. Samples were dissolved in DMSO to a stock solution of 1 mg/mL, and further dilutions were then done with 50 mM sodium phosphate buffer (pH 6.5) for all working solutions. […] In the wells of a 96-well plate, 70 µL of each sample working solution was combined with 30 μL of tyrosinase (500 Units/mL in sodium phosphate buffer) in triplicate. After incubation at room temperature for 5 min, 110 μL of substrate (2 mM L-Tyrosine) was added to each well. Final concentrations of the crude extract, isolated compounds, and positive control ranged from 1.0–100 μg/mL. Incubation commenced for 30 min at room temperature and the enzyme activity was determined by measuring the absorbance at 490 nm. The percentage of tyrosinase inhibition was calculated as follows: Tyrosinase inhibition (%) = [(A − B) − (C − D)]/(A − B) × 100 (1) where A is the absorbance of the control with the enzyme, B is the absorbance of the control without the enzyme, C is the absorbance of the test sample with the enzyme and D is the absorbance of the test sample without the enzyme.

[2] = Trolox equivalent absorbance capacity (TEAC) assay; conditions: trolox equivalents; absorbance 734 nm, 25 °C
Description: Trolox Equivalent Absorbance Capacity (TEAC) Assay: The total antioxidant capacity of the test samples in terms of TEAC were measured using a previously described method. Absorbance was read at 734 nm at 25 °C in a plate reader and the results were expressed as μM trolox equivalents per milligram dry weight (μM TE/g DW) of the test samples.

Rat liver microsomes = conditions: Fe2+-induced, TBARs, samples screened at 50.00 μg/mL, ± STDEV
[3] = biological target: Acetylcholinesterase (AChE) (Homo sapiens, UniProt P22303); test: biochemical; conditions: 500.00 μg/mL upper concentration limit; read-out: Inhibitory Activities IC50, Acetylcholinesterase (converted)
Description: Acetylcholinesterase Inhibition Assay: Acetylcholinesterase (AChE) inhibitory activity was measured using Ellman’s method as previously described with minor modifications. AChE catalysis the hydrolysis of acetythiocholine iodide (ACTI as substrate) to thiocholine, which can then react with Ellman’s reagent (DTNB) to produce 5-thio-2-nitrobenzoate (yellow color). In the presence of samples (inhibitors), the release of 5-thio-2-nitrobenzoate (yellow color) is reduced and it is monitored by measuring the absorbance at 450 nm.
In a 96-Well plate, the reaction mixture contains 50 µL of samples pre-incubated with 125 µL of 3 mM 5,5ʹ-Dithiobis-(2-nitrobenzoic acid), and 25 µL AChE (2.0 U/mL), in 50 mM tris-HCl buffer (pH 8.0), with 0.1% bovine serum albumin (BSA) for 15 minutes at 25 °C. Subsequently, 25 µL (15 mM) ACTI was added to the incubation mixture and further incubated for 10 min at 25 °C. […] Absorbance was recorded at 450 nm. The percent AChE inhibitory activity is given by: [A0 − (B − C)]/A0 × 100 (3) where A0 = full enzymatic reaction; B = Activity in the presence of sample; and C = Activity without sample.

[4] = Ferric-ion reducing antioxidant power (FRAP) assay; conditions: ascorbic acid equivalents; absorbance 593 nm; ± % STDEV
Description: Ferric-Ion Reducing Antioxidant Power (FRAP) Assay: Working FRAP reagent was prepared in accordance to the method described previously. Absorbance was measured at 593 nm. L-ascorbic acid was used as a standard and the results were expressed as μM ascorbic acid equivalents per milligram dry weight (μM AAE/g DW) of the test samples.

[5] = ORAC assay, hydroxyl radical absorbance capacity (ORACOH); conditions: trolox equivalents; H2O2 0.3%, Cu2+ 18 μM, 37 °C; ± % STDEV
Description: as §1

[6] = biological target: T1, elastase from porcine pancrease (Sus scrofa, UniProt P00772); test: biochemical; conditions: SANA substrate; samples screened at 100.00 μg/mL upper limit; read-out: Inhibitory Activities IC50, Elastase (converted)
T1 construct: from tissue; host or cells: porcine pancreas
Description: Elastase Inhibition Assay: Inhibition of elastase by the test samples was assayed using N-succyl-(Ala)-3-nitroanilide (SANA) as the substrate, monitoring the release of p-nitroanilide by the method described previously. The inhibitory activity determined the intensity of color released during cleavage of SANA by the action of elastase. Briefly, 1 mM SANA was prepared in 0.1 M Tris-HCl buffer pH 8.0 and 200 μL of this solution was added to the 20 μL of sample solution in a 96-Well plate. The mixtures were vortexed and preincubated for 10 min at 25 °C and then 20 μL of elastase from porcine pancrease (0.03 Units/mL) was added. The mixtures were further incubated for 10 min and the absorbance was measured at 410 nm. Methanol was used as control, while oleanolic acid used as a positive control.

[7] = ORAC assay, peroxyl radical absorbance capacity (ORACROO); conditions: trolox equivalents; AAPH, 37 °C; ± % STDEV
Description: as §1

T1 sequence (P00772 27-266): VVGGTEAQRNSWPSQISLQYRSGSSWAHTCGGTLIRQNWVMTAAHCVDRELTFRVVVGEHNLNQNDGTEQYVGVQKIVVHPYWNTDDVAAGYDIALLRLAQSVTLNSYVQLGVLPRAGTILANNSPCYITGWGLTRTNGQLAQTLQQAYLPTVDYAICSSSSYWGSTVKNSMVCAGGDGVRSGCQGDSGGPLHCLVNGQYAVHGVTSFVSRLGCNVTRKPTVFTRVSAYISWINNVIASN
Chain of Acetylcholinesterase (AChE) (P22303 32-614, species assumed): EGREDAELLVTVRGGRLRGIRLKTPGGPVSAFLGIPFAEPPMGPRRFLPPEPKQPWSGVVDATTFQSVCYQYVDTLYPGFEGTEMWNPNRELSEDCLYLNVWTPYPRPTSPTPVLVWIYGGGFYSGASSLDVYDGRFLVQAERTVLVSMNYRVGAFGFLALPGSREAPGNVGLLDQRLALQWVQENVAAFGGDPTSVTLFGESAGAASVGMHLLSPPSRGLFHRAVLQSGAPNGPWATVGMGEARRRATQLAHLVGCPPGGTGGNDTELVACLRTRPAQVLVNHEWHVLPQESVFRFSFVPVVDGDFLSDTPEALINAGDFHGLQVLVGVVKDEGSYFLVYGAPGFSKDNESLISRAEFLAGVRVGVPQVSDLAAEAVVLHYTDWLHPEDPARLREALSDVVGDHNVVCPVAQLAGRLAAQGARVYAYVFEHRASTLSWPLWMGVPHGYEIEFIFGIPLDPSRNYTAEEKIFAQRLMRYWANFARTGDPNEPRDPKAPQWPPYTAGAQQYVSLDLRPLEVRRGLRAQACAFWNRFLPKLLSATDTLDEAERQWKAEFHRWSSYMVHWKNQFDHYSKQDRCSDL

Structure (SMILES)	Prooxidant (copper-initiated prooxidant activity) [1] [prooxidant units]	Inhibitory Activities IC50, Tyrosinase (mushroom tyrosinase) [µg/mL]	TEAC [2] [μM TE/g DW]	Anti-Lipid peroxidation IC50 (Rat liver microsomes) [µg/mL]	IC50 [3] [µM]	FRAP [4] [µMAAE/g]	Hydroxyl (ORACOH) [5]	IC50 [6] [µM]	Peroxyl (ORAC peroxyl radical absorbance capacity) [7] [µM TE/g]
CCCC(=O)c1c(O)cc(O)c(CC=C(C)C)c1O [Compound 6, 1-(butanone)-3-prenyl-phloroglucinol]	64.37 ± 0.22	>100.00	4316.61 ± 1.06	30.80 ± 2.12	957	1183.52 ± 6.20	18.07± 3.47 × 10^6 µMTE/g	134	13544.93 ± 12.13
CCC(C)C(=O)c1c(O)cc(O)c(CC=C(C)C)c1O (centres unmarked) [Compound 7, 1-(2-methylbutanone)-3-prenyl-phloroglucinol]	73.87 ± 1.10	>100.00	9998.71 ± 2.66	27.49 ± 3.19	936	1029.03 ± 0.66	23.12 ± 18.94 × 10^6 µMTE/g	240	14139.74 ± 5.96
CC(C)=CCOc1cc(O)c(C(=O)C(C)C)c(O)c1 [Compound 5, 1-(2-methylpropanone)-4-O-prennyl-phloroglucinol]	12.33 ± 6.62	>100.00	2673.62 ± 1.68	20.22 ± 2.72	957	446.64 ± 8.07	5.60 ± 0.79 × 10^6 µMTE/g	263	6053.87 ± 18.67
CC(C)=CCc1c(O)cc(O)c(C(=O)C(C)C)c1O [Compound 9, 1-(2-methylpropanone)-3-prenylphloroglucinol]	69.54 ± 0.29	>100.00	4423.32 ± 3.11	20.95 ± 2.62	–	1096.01 ± 1.12	24.24 ± 1.71 × 10^6 µMTE/g	233	13639.27 ± 17.62
C=C(C)[C@@H](O)Cc1c(O)cc(O)c(C(=O)c2ccccc2)c1O [Compound 2, 1-benzoyl-3(2S-hydroxyl-3-methylbut-3-enyl)-phloroglucinol]	756.90 ± 1.98	26.72 ± 5.05	43615.73 ± 6.66	3.55 ± 1.92	852	4950.08 ± 0.65	94.97 ± 5.88 × 10^6 µMTE/g	> 318	–
CCCC(=O)c1c(O)cc(O)c(C/C=C(\C)COC(C)=O)c1O [Compound 8, 1-butanone-3-(3-methylbut-2-enylacetate)-phloroglucinol]	76.59 ± 0.27	>100.00	6757.40 ± 4.69	27.56 ± 0.63	769	1203.02 ± 2.07	16.70 ± 1.25 × 10^6 µMTE/g	197	14218.17 ± 12.36
CC(=O)OC/C(C)=C/Cc1c(O)cc(O)c(C(=O)C(C)C)c1O [Compound 10, caespitate]	92.31 ± 1.59	>100.00	8705.14 ± 1.83	20.50 ± 4.01	777	1019.28 ± 1.79	16.26 ± 15.39 × 10^6 µMTE/g	182	16735.55 ± 21.72
CC(=O)OC/C(C)=C/Cc1c(O)cc(O)c(C(=O)c2ccccc2)c1O [Compound 1, 1-benzoyl-3(3-methylbut-2-enylacetate)-phloroglucinol]	8.92 ± 1.15	35.63 ± 4.67	19545.00 ± 10.25	5.12 ± 0.90	752	2530.54 ± 0.92	64.85 ± 10.95 × 10^6 µMTE/g	> 281	–
CC(C)C(=O)c1c(O)cc(O)c2c1OC(C)(C)[C@@H](O)C2 [Compound 3, 8-(2-methyl-1-propanone)-3S,5,7-trihydroxyl-2,2-dimethylchromane]	41.73 ± 8.20	80.31 ± 3.31	6001.40 ± 5.63	>50.00	974	155.65 ± 12.02	5.99 ± 4.52 × 10^6 µMTE/g	90.3	3937.78 ± 25.85
CCC(C)C(=O)c1c(O)cc(OCC=C(C)C)cc1O (centres unmarked) [Compound 4, 1-(2-methylbutanone)-4-O-prenyl-phloroglucinol]	7.02 ± 4.02	>100.00	1629.10 ± 2.03	44.62 ± 2.08	981	194.27 ± 1.78	3.92 ± 14.47 × 10^6 µMTE/g	164	5406.65 ± 1.39
O=C(O[C@@H]1Cc2c(O)cc(O)cc2O[C@@H]1c1cc(O)c(O)c(O)c1)c1cc(O)c(O)c(O)c1 [EGCG, epigallocatechin gallate, reference compound]	6.48 ± 1.19	–	11545.44 ± 17.28	1.04 ± 1.02	–	3326.45 ± 5.76	3.91 ± 4.65 × 10^6 µMTE/g	–	–
